According to ChEMBL document CHEMBL5042488, “Synthesis, biological, and structural explorations of a series of μ-opioid receptor (MOR) agonists with high G protein signaling bias” (Eur J Med Chem, 2022):
Activity calls are given as the source filed them.

Experiments:
Mu-type opioid receptor [1] = target: T1, Mu-type opioid receptor (Homo sapiens, UniProt P35372); assay: Agonist activity at mu opioid receptor (unknown origin) assessed as maximal cAMP level incubated for 40 mins by spectrophotometry relative to DAMGO; format: functional; details: filed as agonist
Mu-type opioid receptor [2] = target: T1, Mu-type opioid receptor; assay: Agonist activity at mu opioid receptor (unknown origin) assessed as beta arrestin-2 recruitment incubated for 3 days by PathHunter assay; format: functional
[3] = Metabolic stability in human liver microsomes assessed as intrinsic clearance preincubated for 10 mins followed by NADPH addition and measured after 60 mins by LC-MS/MS analysis; format: ADME, Microsome; details: time 70 min, read-out: CLH
[4] = Metabolic stability in rat liver microsomes assessed as intrinsic clearance preincubated for 10 mins followed by NADPH addition and measured after 60 mins by LC-MS/MS analysis; format: ADME, Microsome; details: time 70 min, read-out: CLH
[5] = Apparent permeability across apical to basal membrane in human Caco-2 cells; format: ADME, cell-based
[6] = Metabolic stability in dog liver microsomes assessed as intrinsic clearance preincubated for 10 mins followed by NADPH addition and measured after 60 mins by LC-MS/MS analysis; format: ADME, Canis lupus familiaris, Microsome; details: time 70 min, read-out: CLH
[7] = Plasma protein binding in human plasma assessed as unbound fraction; format: ADME, cell-free
[8] = Plasma protein binding in rat plasma assessed as unbound fraction; format: ADME, cell-free
[9] = Plasma protein binding in dog plasma assessed as unbound fraction; format: ADME, cell-free, Canis lupus familiaris
Cytochrome P450 2C9 = Cytochrome P450 2C9 (Homo sapiens, UniProt P11712); assay: Inhibition of CYP2C9 (unknown origin); format: ADME
Cytochrome P450 2C19 = Cytochrome P450 2C19 (Homo sapiens, UniProt P33261); assay: Inhibition of CYP2C19 (unknown origin); format: ADME
[10] = Cmax in Sprague-Dawley rat at 2 mg/kg, iv by LC-MS/MS analysis; format: ADME, organism-based; design: route intravenous, dose 2 mg/kg; details: in vivo
[11] = Apparent volume of distribution in Sprague-Dawley rat at 2 mg/kg, iv by LC-MS/MS analysis; format: ADME, organism-based; details: in vivo, read-out: Vz
[12] = Half life in Sprague-Dawley rat at 2 mg/kg, iv by LC-MS/MS analysis; format: ADME, organism-based; details: in vivo
[13] = MRT in Sprague-Dawley rat at 2 mg/kg, iv by LC-MS/MS analysis; format: ADME, organism-based; details: in vivo
[14] = target: Delta-type opioid receptor (Homo sapiens, UniProt P41143); assay: Agonist activity at human delta opioid receptor expressed in HEK293 assessed as increase in calcium mobilization incubated for 60 mins by FLIPR assay; format: functional, cell-based
[15] = target: Kappa-type opioid receptor (Homo sapiens, UniProt P41145); assay: Agonist activity at human kappa opioid receptor expressed in HEK293 assessed as increase in calcium mobilization incubated for 60 mins by FLIPR assay; format: functional, cell-based
Rattus norvegicus [16] = assay: Antinociceptive activity in Sprague-Dawley rat assessed as increase in paw withdrawal latency at 1 mg/kg, sc measured after 30 mins by Hot-plate test; format: functional, organism-based
Rattus norvegicus [17] = assay: Antinociceptive activity in sc dosed Sprague-Dawley rat assessed as increase in thermal pain threshold measured after 30 mins by Hot-plate test; format: functional; details: 0.5 h
[18] = Drug concentration in Sprague-Dawley rat brain at […], iv measured after 5 mins by LC-MS/MS analysis; format: ADME, organism-based; details: dose 0.25 mg/kg, read-out: Drug uptake
[19] = Drug concentration in Sprague-Dawley rat liver at […],iv measured after 30 mins by LC-MS/MS analysis; format: ADME, organism-based; details: in vivo, 0.5 h, dose 0.25 mg/kg
Mu-type opioid receptor [20] = target: T1, Mu-type opioid receptor; assay: Agonist activity at mu opioid receptor (unknown origin) assessed as maximal beta arrestin-2 recruitment incubated for 3 days by PathHunter assay relative to DAMGO; format: functional; details: time 3.0 day
[21] = Toxicity in Sprague-Dawley rat assessed as effect on blood oxygen levels at 1.56 mg/kg, sc measured after 30 mins by blood gas analyzer; format: organism-based; details: in vivo, 0.5 h
[22] = Half life of compound; format: physicochemical
Mu-type opioid receptor [23] = target: T1, Mu-type opioid receptor; assay: Agonist activity at mu opioid receptor (unknown origin) assessed as increase in cAMP level incubated for 40 mins by spectrophotometry; format: functional

T1 sequence (P35372 whole entry): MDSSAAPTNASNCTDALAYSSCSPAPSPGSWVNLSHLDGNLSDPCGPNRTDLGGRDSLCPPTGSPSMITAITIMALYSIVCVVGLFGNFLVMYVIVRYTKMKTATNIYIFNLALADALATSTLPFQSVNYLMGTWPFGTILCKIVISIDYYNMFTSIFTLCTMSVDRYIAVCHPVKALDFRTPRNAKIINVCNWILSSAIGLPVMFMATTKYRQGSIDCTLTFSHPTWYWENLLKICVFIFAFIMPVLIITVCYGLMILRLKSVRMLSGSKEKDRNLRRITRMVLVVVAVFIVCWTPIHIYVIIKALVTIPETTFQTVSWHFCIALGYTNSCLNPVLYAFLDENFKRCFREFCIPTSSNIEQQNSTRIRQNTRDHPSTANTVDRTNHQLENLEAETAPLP
Sequence of Kappa-type opioid receptor (P41145 whole entry): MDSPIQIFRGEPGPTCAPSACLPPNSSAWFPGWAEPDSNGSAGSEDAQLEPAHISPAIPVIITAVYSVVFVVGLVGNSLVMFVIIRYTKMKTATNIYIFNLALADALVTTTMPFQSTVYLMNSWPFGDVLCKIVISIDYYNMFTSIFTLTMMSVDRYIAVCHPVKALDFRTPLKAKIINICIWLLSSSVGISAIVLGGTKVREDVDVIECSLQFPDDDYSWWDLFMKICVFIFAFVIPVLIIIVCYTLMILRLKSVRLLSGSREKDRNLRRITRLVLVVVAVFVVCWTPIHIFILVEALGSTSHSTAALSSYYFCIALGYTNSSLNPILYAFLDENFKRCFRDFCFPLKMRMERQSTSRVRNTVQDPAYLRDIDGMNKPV
Sequence of Cytochrome P450 2C9 (P11712 whole entry): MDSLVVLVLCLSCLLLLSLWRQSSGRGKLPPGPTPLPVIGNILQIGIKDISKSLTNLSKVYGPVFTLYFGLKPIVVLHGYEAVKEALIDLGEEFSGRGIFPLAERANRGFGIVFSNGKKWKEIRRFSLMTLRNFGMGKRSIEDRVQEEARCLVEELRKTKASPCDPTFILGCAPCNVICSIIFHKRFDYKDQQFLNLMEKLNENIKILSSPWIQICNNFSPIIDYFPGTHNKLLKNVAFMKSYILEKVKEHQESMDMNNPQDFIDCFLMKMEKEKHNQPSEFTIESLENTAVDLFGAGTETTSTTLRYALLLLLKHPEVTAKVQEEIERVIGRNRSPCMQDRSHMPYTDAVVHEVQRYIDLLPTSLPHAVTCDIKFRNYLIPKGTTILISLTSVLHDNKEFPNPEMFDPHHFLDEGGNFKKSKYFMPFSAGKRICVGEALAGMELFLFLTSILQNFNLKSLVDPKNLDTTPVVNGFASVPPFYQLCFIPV
Sequence of Delta-type opioid receptor (P41143 whole entry): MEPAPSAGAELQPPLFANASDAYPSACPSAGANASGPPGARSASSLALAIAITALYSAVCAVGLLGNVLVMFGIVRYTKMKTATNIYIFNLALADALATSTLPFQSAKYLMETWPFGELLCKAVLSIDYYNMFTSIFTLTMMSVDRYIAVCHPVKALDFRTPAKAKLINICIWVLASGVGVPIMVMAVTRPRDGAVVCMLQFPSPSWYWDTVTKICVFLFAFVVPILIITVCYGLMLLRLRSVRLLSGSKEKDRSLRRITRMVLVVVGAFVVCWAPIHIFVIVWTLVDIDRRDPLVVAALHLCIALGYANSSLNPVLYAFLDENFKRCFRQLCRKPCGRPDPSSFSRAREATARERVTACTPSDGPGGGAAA
Sequence of Cytochrome P450 2C19 (P33261 whole entry): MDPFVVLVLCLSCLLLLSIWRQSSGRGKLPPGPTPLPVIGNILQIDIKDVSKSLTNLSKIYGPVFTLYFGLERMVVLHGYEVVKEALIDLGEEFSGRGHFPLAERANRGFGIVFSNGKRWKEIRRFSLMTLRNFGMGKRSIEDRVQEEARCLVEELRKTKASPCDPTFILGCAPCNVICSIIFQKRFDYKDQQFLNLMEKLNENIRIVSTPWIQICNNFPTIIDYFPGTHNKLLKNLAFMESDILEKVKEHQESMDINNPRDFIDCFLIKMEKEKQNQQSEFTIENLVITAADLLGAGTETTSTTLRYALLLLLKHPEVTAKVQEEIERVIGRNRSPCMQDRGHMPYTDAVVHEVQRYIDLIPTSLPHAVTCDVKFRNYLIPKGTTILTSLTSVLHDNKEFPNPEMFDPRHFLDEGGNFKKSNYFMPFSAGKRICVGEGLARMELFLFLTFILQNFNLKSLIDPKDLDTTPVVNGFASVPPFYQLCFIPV

| SMILES | Emax (Mu-type opioid receptor [1]) [%] | EC50 (Mu-type opioid receptor [2]) [nM] | CLint scaled [3] [mL/min/kg] | Emax (Mu-type opioid receptor [20]) [%] | EC50 (Mu-type opioid receptor [23]) [nM] | other results |
| --- | --- | --- | --- | --- | --- | --- |
| COc1ccsc1CNCC[C@@]1(c2ccccn2)CCO[C@@]2(CCOC2)C1 | 66.3 | > 30000 |  |  |  |  |
| Fc1ccc([C@]2(CCNCc3scc4c3CCC4)CCO[C@]3(CCOC3)C2)nc1 | 95.1 |  | 108 |  |  |  |
| COc1ccsc1CNCC[C@@]1(c2ccccn2)CCOC2(CCCC2)C1 [OLICERIDINE] | 92.5 |  |  | 4.6 |  | CLint scaled [4]: 1110 mL/min/kg; Papp A→B [5]: 4.4 ×10⁻⁶ cm/s; CLint scaled [6]: 465 mL/min/kg; fraction unbound [7]: 0.22; fraction unbound [8]: 0.36; fraction unbound [9]: 0.023; IC50 (Cytochrome P450 2C9): > 50000 nM; IC50 (Cytochrome P450 2C19): > 50000 nM; Cmax [10]: 249 ng/mL; Vd [11]: 6.39 L/kg; half-life [12]: 72.6 min; MRT [13]: 49.2 min; EC50 [14]: > 10000 nM; EC50 [15]: > 10000 nM; Activity (Rattus norvegicus [16]): Active; ED50 (Rattus norvegicus [17]): 0.85 mg/kg; concentration at 5 min [18]: 64.8 ng/g; Drug uptake [19]: 23.8%; Activity [21]: 87.62%; half-life [22]: 6.51 min |
| Clc1ccc(CNCC[C@@]2(c3ccccn3)CCOC3(CCOC3)C2)s1 (some centres not stated) | 93.3 | > 30000 |  | 2.3 | 22.3 |  |
| FC1(F)Cc2csc(CNCC[C@@]3(c4ccccn4)CCOC4(CCCC4)C3)c2C1 | 96.9 | 10 |  | 9.8 | 0.1 |  |
| C[C@@H](NC(=O)[C@@H](N)Cc1ccc(O)cc1)C(=O)NCC(=O)N(C)[C@@H](Cc1ccccc1)C(=O)NCCO [DAMGO] |  |  |  |  |  | half-life [22]: 5.95 min |
| c1ccc([C@]2(CCNCc3scc4c3CCC4)CCO[C@]3(CCOC3)C2)nc1 | 96.9 |  | 49 |  | 0.46 | CLint scaled [4]: 651 mL/min/kg; Papp A→B [5]: 2.4 ×10⁻⁶ cm/s; CLint scaled [6]: 203 mL/min/kg; fraction unbound [7]: 0.54; fraction unbound [8]: 0.58; fraction unbound [9]: 0.16 |
| Cc1cc(C)cc(CNCC[C@@]2(c3ccccn3)CCOC3(CCOC3)C2)c1 (some centres not stated) | 96.6 | > 30000 |  | 4.6 | 11.6 |  |
| Fc1ccc([C@]2(CCNCc3scc4c3COC4)CCOC3(CCOC3)C2)cc1 (some centres not stated) |  | > 30000 | 191 |  | 6.8 |  |
| Cc1ccsc1CNCC[C@@]1(c2ccc(F)cc2)CCOC2(CCOC2)C1 (some centres not stated) | 61.2 | > 30000 |  | 2.9 | 4.1 |  |
| Fc1ccc(CNCC[C@@]2(c3ccccn3)CCOC3(CCOC3)C2)cc1Cl (some centres not stated) | 92.3 | > 30000 |  |  | 26.5 |  |
| FC1(F)CCc2csc(CNCC[C@@]3(c4ccccn4)CCOC4(CCCC4)C3)c2C1 | 92.5 | 11 | 1610 |  | 1.8 | Emax (Mu-type opioid receptor [20]; filed as agonist): 54.3% |
| Clc1cccc(CNCC[C@@]2(c3ccccn3)CCOC3(CCOC3)C2)c1 (some centres not stated) | 86.4 | > 30000 | 22.1 |  | 2.6 |  |
